Test results reported in ChEMBL document CHEMBL5500347, “An update on antibacterial AlkylGuanidino Ureas: Design of new derivatives, synergism with colistin and data analysis of the whole library” (2024).
Converted amounts (≈) assume the structure as drawn. The source made the active and inactive calls. No cut-off for these calls is given here.

What was measured:
Acinetobacter baumannii [1] = experiment: Synergistic antibacterial activity against Acinetobacter baumannii ATCC 17978 incubated for 18 to 24 hrs in presence of colistin by CLSI based microdilution broth method; type: functional; details: time 18-24 hrs
Klebsiella pneumoniae [2] = experiment: Synergistic antibacterial activity against Klebsiella pneumoniae ATCC 13833 assessed as potentiation fold by measuring MIC to MAC ratio incubated for 18 to 24 hrs in presence of colistin by CLSI based microdilution broth method; type: functional; details: time 18-24 hrs
Pseudomonas aeruginosa [3] = experiment: Synergistic antibacterial activity against Pseudomonas aeruginosa ATCC 27853 incubated for 18 to 24 hrs in presence of colistin by CLSI based microdilution broth method; type: functional; details: time 18-24 hrs
Acinetobacter baumannii [4] = experiment: Antibacterial activity against Acinetobacter baumannii ATCC 17978 incubated for 18 to 24 hrs by CLSI based microdilution broth method; type: functional; details: time 18-24 hrs; for MIC: Acinetobacter baumannii, ATCC 17978
Acinetobacter baumannii [5] = experiment: Synergistic antibacterial activity against Acinetobacter baumannii N50 incubated for 18 to 24 hrs in presence of colistin by CLSI based microdilution broth method; type: functional; details: time 18-24 hrs
Escherichia coli [6] = experiment: Antibacterial activity against Escherichia coli CCUGT incubated for 18 to 24 hrs by CLSI based microdilution broth method; type: functional; details: time 18-24 hrs
Pseudomonas aeruginosa [7] = experiment: Synergistic antibacterial activity against Pseudomonas aeruginosa ATCC 27853 assessed as potentiation fold by measuring MIC to MAC ratio incubated for 18 to 24 hrs in presence of colistin by CLSI based microdilution broth method; type: functional; details: time 18-24 hrs
Escherichia coli [8] = experiment: Synergistic antibacterial activity against Escherichia coli CCUGT incubated for 18 to 24 hrs in presence of colistin by CLSI based microdilution broth method; type: functional; details: time 18-24 hrs
Staphylococcus aureus [9] = experiment: Antibacterial activity against Staphylococcus aureus ATCC 25923 incubated for 18 to 24 hrs by CLSI based microdilution broth method; type: functional; details: time 18-24 hrs
Klebsiella pneumoniae [10] = experiment: Antibacterial activity against Klebsiella pneumoniae ATCC 13833 incubated for 18 to 24 hrs by CLSI based microdilution broth method; type: functional; details: time 18-24 hrs
Acinetobacter baumannii [11] = experiment: Antibacterial activity against Acinetobacter baumannii N50 incubated for 18 to 24 hrs by CLSI based microdilution broth method; type: functional; details: time 18-24 hrs
Enterococcus faecalis [12] = experiment: Antibacterial activity against Enterococcus faecalis ATCC 19433 incubated for 18 to 24 hrs by CLSI based microdilution broth method; type: functional; details: time 18-24 hrs
Acinetobacter baumannii [13] = experiment: Synergistic antibacterial activity against Acinetobacter baumannii N50 assessed as potentiation fold by measuring MIC to MAC ratio incubated for 18 to 24 hrs in presence of colistin by CLSI based microdilution broth method; type: functional; details: time 18-24 hrs
Bacillus subtilis [14] = experiment: Antibacterial activity against Bacillus subtilis ATCC 6633 incubated for 18 to 24 hrs by CLSI based microdilution broth method; type: functional; details: time 18-24 hrs
Escherichia coli [15] = experiment: Synergistic antibacterial activity against Escherichia coli CCUGT assessed as potentiation fold by measuring MIC to MAC ratio incubated for 18 to 24 hrs in presence of colistin by CLSI based microdilution broth method; type: functional; details: time 18-24 hrs
Streptococcus pyogenes [16] = experiment: Antibacterial activity against Streptococcus pyogenes ATCC 12344 incubated for 18 to 24 hrs by CLSI based microdilution broth method; type: functional; details: time 18-24 hrs
Klebsiella pneumoniae [17] = experiment: Synergistic antibacterial activity against Klebsiella pneumoniae ATCC 13833 incubated for 18 to 24 hrs in presence of colistin by CLSI based microdilution broth method; type: functional; details: time 18-24 hrs
Pseudomonas aeruginosa [18] = experiment: Antibacterial activity against Pseudomonas aeruginosa ATCC 27853 incubated for 18 to 24 hrs by CLSI based microdilution broth method; type: functional; details: time 18-24 hrs; for MIC: Pseudomonas aeruginosa, ATCC 27853
Acinetobacter baumannii [19] = experiment: Synergistic antibacterial activity against Acinetobacter baumannii ATCC 17978 assessed as potentiation fold by measuring MIC to MAC ratio incubated for 18 to 24 hrs in presence of colistin by CLSI based microdilution broth method; type: functional; details: time 18-24 hrs
Staphylococcus aureus [20] = experiment: Antibacterial activity against Staphylococcus aureus ATCC 25923 at 256 ug/ml incubated for 18 to 24 hrs by CLSI based microdilution broth method; type: functional, organism-based; details: dose 256.0 µg/ml, time 18-24 hrs
Klebsiella pneumoniae [21] = experiment: Antibacterial activity against Klebsiella pneumoniae ATCC 13833 at 256 ug/ml incubated for 18 to 24 hrs by CLSI based microdilution broth method; type: functional, organism-based; details: dose 256.0 µg/ml, time 18-24 hrs
Streptococcus pyogenes [22] = experiment: Antibacterial activity against Streptococcus pyogenes ATCC 12344 at 256 ug/ml incubated for 18 to 24 hrs by CLSI based microdilution broth method; type: functional, organism-based; details: dose 256.0 µg/ml, time 18-24 hrs
Bacillus subtilis [23] = experiment: Antibacterial activity against Bacillus subtilis ATCC 6633 at 256 ug/ml incubated for 18 to 24 hrs by CLSI based microdilution broth method; type: functional, organism-based; details: dose 256.0 µg/ml, time 18-24 hrs
Enterococcus faecalis [24] = experiment: Antibacterial activity against Enterococcus faecalis ATCC 19433 at 256 ug/ml incubated for 18 to 24 hrs by CLSI based microdilution broth method; type: functional, organism-based; details: dose 256.0 µg/ml, time 18-24 hrs
Acinetobacter baumannii [25] = experiment: Antibacterial activity against Acinetobacter baumannii ATCC 17978 at 256 ug/ml incubated for 18 to 24 hrs by CLSI based microdilution broth method; type: functional, organism-based; details: dose 256.0 µg/ml, time 18-24 hrs
Pseudomonas aeruginosa [26] = experiment: Antibacterial activity against Pseudomonas aeruginosa ATCC 27853 at 256 ug/ml incubated for 18 to 24 hrs by CLSI based microdilution broth method; type: functional, organism-based; details: dose 256.0 µg/ml, time 18-24 hrs
Escherichia coli [27] = experiment: Antibacterial activity against Escherichia coli CCUGT at 256 ug/ml incubated for 18 to 24 hrs by CLSI based microdilution broth method; type: functional, organism-based; details: dose 256.0 µg/ml, time 18-24 hrs
[28] = Escherichia coli, CCUGT, read-out: MIC
[29] = Klebsiella pneumoniae, ATCC 13833, read-out: MIC

Row | SMILES | MAC (Acinetobacter baumannii [1]) | Ratio (Klebsiella pneumoniae [2]) | MAC (Pseudomonas aeruginosa [3]) | MIC (Acinetobacter baumannii [4]) | MAC (Acinetobacter baumannii [5]) | MIC (Escherichia coli [6]; [28]) | Ratio (Pseudomonas aeruginosa [7]) | MAC (Escherichia coli [8]) | MIC (Klebsiella pneumoniae [10]; [29]) | MIC (Acinetobacter baumannii [11]) | Ratio (Acinetobacter baumannii [13]) | Ratio (Escherichia coli [15]) | MAC (Klebsiella pneumoniae [17]) | MIC (Pseudomonas aeruginosa [18]) | Ratio (Acinetobacter baumannii [19]) | also measured
1 | O=C(O)C(F)(F)F.[N-]=[N+]=NCCCCCCCCN(CCCCCCCCNC(=N)N)C(=O)N(CCCCCCCCN=[N+]=[N-])CCCCCCCCNC(=N)N | 64 µg/mL | 16 | 16 µg/mL | 64 µg/mL | 32 µg/mL | 32 µg/mL | >16 | 32 µg/mL | 32 µg/mL | 32 µg/mL | 1 | 1 | 2 µg/mL | > 256 µg/mL | 1 | MIC (Staphylococcus aureus [9]): 2 µg/mL; MIC (Enterococcus faecalis [12]): 16 µg/mL; MIC (Bacillus subtilis [14]): 8 µg/mL; MIC (Streptococcus pyogenes [16]): 8 µg/mL
2 | N=C(N)NCCCCCCCCN(CCCCCCCCN)C(=O)N(CCCCCCCCN)CCCCCCCCNC(=N)NCC1CC1 | 8 µg/mL | 2 | 8 µg/mL |  | 4 µg/mL |  | 16 | 0.5 µg/mL |  | 32 µg/mL (≈ 45.3 µM) | 8 | 64 | 32 µg/mL |  | 8 | MAC (Acinetobacter baumannii [4]): 64 µg/mL; MIC (Escherichia coli [6]): 32 µg/mL (≈ 45.3 µM); MIC (Klebsiella pneumoniae [10]): 64 µg/mL (≈ 90.5 µM); MAC (Pseudomonas aeruginosa [18]): 128 µg/mL
3 | N=C(N)NCCCCCCCCN(CCCCCCCCNC(=N)NCC1CC1)C(=O)NC(=N)NCCCCCCCCNCCCCCCCCNC(=N)NCC1CC1 | 0.125 µg/mL | >256 | 2 µg/mL | > 64 µg/mL | 0.5 µg/mL | > 256 µg/mL | >128 | 0.5 µg/mL | > 256 µg/mL | > 64 µg/mL | >128 | >512 | 1 µg/mL | > 256 µg/mL | >256 | 
4 | [N-]=[N+]=NCCCCCCCCN(CCCCCCCCNC(c1ccccc1)(c1ccccc1)c1ccccc1)C(=O)N(CCCCCCCCN=[N+]=[N-])CCCCCCCCNC(c1ccccc1)(c1ccccc1)c1ccccc1 |  |  |  |  |  |  |  |  |  |  |  |  |  |  |  | Activity (Staphylococcus aureus [20]): inactive; Activity (Klebsiella pneumoniae [21]): inactive; Activity (Streptococcus pyogenes [22]): inactive; Activity (Bacillus subtilis [23]): inactive; Activity (Enterococcus faecalis [24]): inactive; Activity (Acinetobacter baumannii [25]): inactive; Activity (Pseudomonas aeruginosa [26]): inactive; Activity (Escherichia coli [27]): inactive
5 | N=C(NCCCCCCCCN(CCCCCCCCNC(=N)NCC1CC1)C(=O)N(CCCCCCNC(=N)NCC1CC1)CCCCCCNC(=N)NCC1CC1)NCC1CC1 | 4 µg/mL |  | 128 µg/mL | 64 µg/mL (≈ 71.3 µM) | 2 µg/mL | 4 µg/mL (≈ 4.46 µM) | 1 |  | 4 µg/mL (≈ 4.46 µM) | 64 µg/mL (≈ 71.3 µM) | 32 |  |  | 128 µg/mL (≈ 143 µM) | 16 | 
6 | N=C(N)NCCCCCCN(CCCCCCNC(=N)NCC1CC1)C(=O)N(CCCCCCNC(=N)N)CCCCCCNC(=N)NCC1CC1 | 1 µg/mL | 2 | 8 µg/mL | 128 µg/mL (≈ 175 µM) | >256 µg/mL | 16 µg/mL (≈ 21.8 µM) | 32 | 1 µg/mL | 32 µg/mL (≈ 43.6 µM) | > 256 µg/mL | 1 | 16 | 16 µg/mL | 256 µg/mL (≈ 349 µM) | 128 | 
